Columns and labels:
[1] = tested on: transglutaminase (TGase); assay: Measurement of TG (TGase inhibitory activity, monodansyl cadaverine / N,N-dimethylcasein fluorescence, FDSS 3000); type: biochemical
Outline: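 Compound (1 μL of 10 mM stock) added to 0.1 mL reaction: 100 mM HEPES-NaOH pH 7.5, 1 mM CaCl2, 20 μM monodansyl cadaverine, 0.05 mg/mL N,N-dimethylcasein, 5 μg/mL TGase. Rate of fluorescence change at 340 nm measured; DMSO control set to 100; TG50 is the concentration halving activity.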

[2] = tested on: Truncated N-terminal huntington 150 Q-EGFP-Neuron 2a cells; assay: Measurement of x-Fold (polyglutamine aggregation inhibitory activity); type: cell-based
Method: In the present invention, the polyglutamine aggregation inhibitory activity (x-Fold) can be measured, for example, by the method described in the Example.
The number of the aggregated cells, and the total number of cells were counted by Array Scan V T1 (manufactured by Cellomics, Pittuburg, USA), and the ratio of the aggregated cells to the total number of cells was determined (x-Fold). […]

[3] = TGase activity with compound (10 mM, 1 μL in 0.1 ml enzyme reaction solution), DMSO control taken as 100
[4] = TGase inhibitory activity measurement, unit not given
[5] = polyglutamine aggregation, Truncated N-terminal huntington 150 Q-EGFP-Neuron 2a cells
[6] = ratio of aggregated cells to total number of cells, compound 20 μM, 20 hr, almost 1 without compound, smaller = stronger inhibition
[7] = polyglutamine aggregation inhibitory activity, Table 1
[8] = TGase inhibitory activity value, Table 1

Row | Compound | TGase activity remaining (% of DMSO control = 100) [1, 3] | TGase activity remaining (% of DMSO control = 100) [1, 4] | x-Fold [2, 5] | x-Fold [2, 6] | x-Fold [2, 7] | TGase activity remaining (% of DMSO control = 100) [1, 8] | TGase activity remaining (% of DMSO control = 100) ([1]; TGase inhibitory activity value, Table 1, listed as 6095) | x-Fold ([2]; polyglutamine aggregation inhibitory activity, Table 1, listed as 6095) | TGase activity remaining (% of DMSO control = 100) ([1]; TGase inhibitory activity value, Table 1, listed as 871) | x-Fold ([2]; polyglutamine aggregation inhibitory activity, Table 1, listed as 871)
1 | CNCCOB(c1ccc(COc2ccc(B(OCCNC)c3ccc(C(F)(F)F)cc3)cc2)cc1)c1ccc(C(F)(F)F)cc1 [Example 402, (4′-trifluoromethylphenyl-N-methylaminoethoxyboryl)-4-phenyl(4′-trifluoromethylphenyl-N-methylaminoethoxyboryl-4-benzyl)ether] | −12 | −12 | 0.57 | 0.57 | – | – | – | – | – | –
2 | CN(C)CCOB(c1ccccc1)c1ccc(Oc2ccc(B(OCCN(C)C)c3ccccc3)cc2)cc1 [Example 385, bis(4,4′-(phenyl-N,N-dimethylaminoethoxyboryl)phenyl)ether] | 116 | – | – | 0.78 | 1.07 | – | – | – | – | –
3 | OB(c1ccccc1)c1cccc(-c2cccc(B(O)c3ccccc3)n2)n1 [Example 381, 6,6′-(phenylhydroxyboryl)-2,2′-dipyridyl] | 55 | – | – | 0.80 | 0.80 | 55 | – | – | – | –
4 | c1ccc(B(OCCN2CCCCC2)c2cccc(COCc3cccc(B(OCCN4CCCCC4)c4ccccc4)c3)c2)cc1 [Example 466, bis(3,3′-(phenyl-1-piperidylethoxyboryl)benzyl)ether] | 71 | 71 | 1.04 | 1.04 | – | – | – | – | – | –
5 | NCC(=O)OB(c1ccccc1)c1ccccc1 [Example 254, diphenyl(glycinate-O,N)borane] | 101 | – | – | 0.95 | 0.95 | 101 | – | – | – | –
6 | c1ccc(B2OCCN3CCN(CCOB(c4ccccc4)c4ccc(cc4)Oc4ccc2cc4)CC3)cc1 [Example 196, 4,4′-(phenylpiperazino-O,O-ethoxyboryl)phenylether] | 117 | – | – | 0.90 | 0.90 | 117 | – | – | – | –
7 | N#Cc1ccc(B(O)c2ccc(C#N)cc2)cc1 [Example 305, 4,4′-di(cyano-phenyl)borinic acid] | 94 | – | – | 0.98 | – | – | 94 | 0.98 | – | –
8 | Cc1ccc(Cl)cc1B(OCC1CCCCN1)c1cc(Cl)ccc1C (stereo not shown) [Example 242, di(5-chloro-2-methylphenyl) 2-piperidinomethylborinate] | 98 | – | – | 1.17 | – | – | – | – | – | –
9 | NCCOB(c1ccccc1)c1ccccc1B(OCCN)c1ccccc1 [Example 298, 1,2-di(phenylaminoethoxyboryl)benzene] | 101 | – | – | 1.01 | 1.01 | 101 | – | – | – | –
10 | CCC(C)B(O)c1ccccc1 (stereo not shown) [Example 107, secondary-butyl phenyl borinic acid] | 111 | – | – | 0.98 | 0.98 | 111 | – | – | – | –
11 | c1ccc(B(OCC2CCCN2)c2ccc3sc4ccc(B(OCC5CCCN5)c5ccccc5)cc4c3c2)cc1 (stereo not shown) [Example 483, 2,8-di(phenyl 2-pyrrolidinomethoxyboryl)dibenzothiophene] | 107 | 107 | 0.73 | 0.73 | – | – | – | – | – | –
12 | OB(c1ccc(COCc2cccc(B(O)c3cc(F)c(F)c(F)c3)c2)cc1)c1cc(F)c(F)c(F)c1 [Example 342, (3-(3′,4′,5′-trifluorophenylhydroxyboryl)benzyl)(4-(3′,4′,5′-trifluorophenylhydroxyboryl)benzyl)ether] | 114 | – | – | 1.02 | 1.02 | 114 | – | – | – | –
13 | NC(=O)CC(N)C(=O)OB(c1ccccc1)c1ccccc1 (stereo not shown) [Example 136, diphenyl(asparaginate-O,N)borane] | 96 | – | – | 0.98 | – | – | – | – | 96 | 0.98
14 | c1ccc(B(OCCN2CCN(CCOB(c3ccccc3)c3ccccc3)CC2)c2ccccc2)cc1 [Example 356] | – | – | – | – | 0.94 | 126 | – | – | – | –
15 | FC(F)(F)c1ccc(B(OCc2ccccn2)c2ccc(C(F)(F)F)cc2)cc1 [Example 155, di(trifluoromethylphenyl) 2-pyridinomethylborinate] | 100 | – | – | 1.02 | – | – | – | – | – | –
16 | N#Cc1ccc(B(O)c2cccc(COCc3cccc(B(O)c4ccc(C#N)cc4)c3)c2)cc1 [Example 345, bis(3-(4-cyanophenylhydroxyboryl)benzyl)ether] | 95 | – | – | 0.92 | 0.92 | 95 | – | – | – | –
17 | OB(c1ccc(Oc2ccc(B(O)c3cccc4ccccc34)cc2)cc1)c1cccc2ccccc12 [Example 439, bis(4,4′-(naphthylhydroxyboryl)phenyl)ether] | 33 | 33 | 0.54 | 0.54 | – | – | – | – | – | –
18 | OB(c1ccccc1)c1ccc2ccccc2c1-c1c(B(O)c2ccccc2)ccc2ccccc12 [Example 359, 2,2′-di(phenylhydroxyboryl)-1,1′-binaphthyl] | 139 | – | – | 0.96 | 0.96 | 139 | – | – | – | –
19 | di(3-chloro-4-methylphenyl)(2,6-diaminopimelinate-O,N)borane [Example 286] | 104 | – | – | 0.93 | 0.93 | 104 | – | – | – | –
20 | Cc1ccc(B(OC(CN)c2ccccc2)c2ccc(C)c(Cl)c2)cc1Cl (stereo not shown) [Example 209, di(3-chloro-4-methylphenyl)1-phenyl 2-aminoethylborinate] | 1 | – | – | 0.98 | 0.98 | 1 | – | – | – | –
21 | COc1ccc(F)cc1B(O)c1ccc(COCc2ccc(B(O)c3cc(F)ccc3OC)cc2)cc1 [Example 349, bis(4-(2-methoxy-5-fluorophenylhydroxyboryl)benzyl)ether] | 104 | – | – | 0.80 | 0.80 | 104 | – | – | – | –
22 | CC(O)C(N)C(=O)OB(c1ccccc1)c1ccccc1 (stereo not shown) [Example 265, diphenyl(threoninate-O,N)borane] | 112 | – | – | 0.94 | 0.94 | 112 | – | – | – | –
23 | 4,4′-(phenyl piperazino-O,O-ethoxyboryl)benzylether [Example 197] | 99 | – | – | 1.02 | 1.02 | 99 | – | – | – | –
24 | COc1ccc(NCCOBc2cccc(COCc3cccc(BOCCNc4ccc(OC)cc4)c3)c2)cc1 [Example 343, bis(3-(4-methoxyphenylaminoethoxyboryl)benzyl)ether] | 55 | – | – | 1.02 | 1.02 | 55 | – | – | – | –
25 | Cc1cc(B(O)c2cccc(COCc3ccccc3B(O)c3ccc(Cl)c(C)c3)c2)ccc1Cl [Example 344, (3-(4-chloro-3-methylphenylhydroxyboryl)benzyl)(2-(4-chloro-3-methylphenylhydroxyboryl)benzyl)ether] | 91 | – | – | 0.93 | 0.93 | 91 | – | – | – | –
26 | Cc1ccc(B(OC(=O)C(N)CCN)c2ccc(C)c(Cl)c2)cc1Cl (stereo not shown) [Example 293, di(3-chloro-4-methylphenyl)(2,4-diaminobutyrate-O,N)borane] | 116 | – | – | 0.91 | 0.91 | 116 | – | – | – | –
27 | OB(c1cc(Cl)ccc1F)c1cc(Cl)ccc1F [Example 98, bis(3-chloro-6-fluorophenyl)borinic acid] | 111 | – | – | 0.95 | 0.95 | 111 | – | – | – | –
28 | NCCCCC(N)C(=O)OB(c1ccccc1)c1ccc(Oc2ccc(B(OC(=O)C(N)CCCCN)c3ccccc3)cc2)cc1 (stereo not shown) [Example 437, bis(4,4′-(phenyl-lysineboryl)phenyl)ether] | 119 | 119 | 0.85 | 0.85 | – | – | – | – | – | –
29 | NC(c1ccccc1)C(OB(c1ccccc1)c1ccccc1)c1ccccc1 (stereo not shown) [Example 224, diphenyl 1-(2-aminobenzyl) 1-phenylmethylborinate] | 112 | – | – | 0.89 | 0.89 | 112 | – | – | – | –
